{
  "source": "patent US10036036B1",
  "about": "“Compositions and methods for deploying a transgenic refuge as a seed blend” (priority 2007, dated 2018)",
  "system": "western and northern corn rootworm",
  "assay": "Field trial (Example 3): corn rootworm damage by Iowa class, percent of control and synergy threshold",
  "type": "in vivo",
  "experimental": "A field trial was established and completed in accordance with pertinent protocols and in conformance with USDA notification requirements. The purpose of the trial was to determine the efficacy of transgenic event Cry3Bb.11231 in corn seed in combination with corn rootworm seed treatments using imidacloprid.\nAll seed treatments with pesticides were carried out as described in Example 1. In seed treatment number 1 and 2, Gaucho® was used for wire worm protection, but at levels sufficiently low that it would be expected to have no effect on corn rootworms (i.e., at a treatment level of about 60 gm of active/100 kg seed or 0.16 mg active/kernel), otherwise, seed receiving treatment number 2 had only transgenic event Cry3Bb.11231 and no pesticide treatment that would be expected to be effective against corn rootworm.\nFor seeds having treatments numbered 3 through 5, the pesticides were applied by the methods described in Example 1. For seeds having treatment numbers 6 and 7, commercially available Force® 3 G and Lorsban® 15 G were applied to the soil in a 5″ band at the time of sowing. The levels of application are as shown and are within the ranges recommended for standard commercial practice.\nCorn seeds to be tested were planted and grown at four different locations across several Midwestern states in the United States corn belt according to the protocol described above.\nThe determination of damage by corn root worm was made according to the protocol described in Example 2.\nThe combination of imidacloprid seed treatment with corn seed having a Cry3Bb.11231 transgenic event was tested for possible synergy at a level of rootworm damage of 3-6. In the first test, shown in Table 2, the percentage of test plants having damage levels of from 3 to 6, on the Iowa 1-6 Scale, was determined for the control and for seeds treated with the pesticide at two levels, and for seeds having the transgenic event, alone and in combination. The following formula was then used to calculate a “synergy threshold”: (% of control Cry3Bb.11231)*(% of control imidacloprid treatment)/100.\nThis threshold was compared against the percent of control for the treatment combination (i.e., Cry3Bb.11231 with imidacloprid @ 400 gm/100 kg). If the treatment combination percent of control was below the threshold, then it was concluded that there was synergy.\nIt was believed that the measurement of rootworm damage at higher damage levels (i.e., levels 3-6) is a useful indicator that correlates with subsequent yield loss due to such damage. The reason for this is that rootworm damage at levels 1 and 2 seldom causes corn plants to fall over and lodge, and such minimal root loss is not believed to reduce the number or weight of kernels per ear. However, root damage at levels of 3 and above increasingly causes lodging and loss of yield. Therefore, it is believed that the summed damage levels of 3-6 (and in some cases, 4-6 and 5 and 6), provides a useful indication of the effect of corn rootworm damage on subsequent corn yield.",
  "data": [
    {"smiles": "O=[N+]([O-])NC1=NCCN1Cc1ccc(Cl)nc1", "note": "[Imidacloprid, 1-[(6-chloro-3-pyridinyl)methol]-N-nitro-2-imidazolidinimime]", "values": [
      {"measurement": "PERCENT OF CONTROL", "setting": "Table 2, plants with damage levels 3-6 relative to isohybrid control", "value": 80.5, "unit": "%"},
      {"measurement": "NUMBER OF PLANTS HAVING 3-6 DAMAGE LEVEL", "setting": "Table 3, damage levels 3-6 on Iowa 1-6 scale", "value": 71.7},
      {"measurement": "PERCENT OF CONTROL", "setting": "Table 3, damage levels 3-6 relative to untreated control", "value": 80.5, "unit": "%"},
      {"measurement": "CORN ROOTWORM DAMAGE IN EACH IOWA CLASS (IOWA 1-6 SCALE): 1", "setting": "count of plants in Iowa class 1", "value": 3},
      {"measurement": "CORN ROOTWORM DAMAGE IN EACH IOWA CLASS (IOWA 1-6 SCALE): 2", "setting": "count of plants in Iowa class 2", "value": 15},
      {"measurement": "CORN ROOTWORM DAMAGE IN EACH IOWA CLASS (IOWA 1-6 SCALE): 3", "setting": "count of plants in Iowa class 3", "value": 36},
      {"measurement": "CORN ROOTWORM DAMAGE IN EACH IOWA CLASS (IOWA 1-6 SCALE): 4", "setting": "count of plants in Iowa class 4", "value": 21},
      {"measurement": "CORN ROOTWORM DAMAGE IN EACH IOWA CLASS (IOWA 1-6 SCALE): 5", "setting": "count of plants in Iowa class 5", "value": 5},
      {"measurement": "CORN ROOTWORM DAMAGE IN EACH IOWA CLASS (IOWA 1-6 SCALE): 6", "setting": "count of plants in Iowa class 6", "value": 0}
    ]}
  ]
}
